Experimental data from publication PMC7144106, “The Evolution of Pleconaril: Modified O-Alkyl Linker Analogs Have Biological Activity towards Coxsackievirus B3 Nancy” (Molecules, 2020).
Like-named read-outs stand apart in the source and are kept apart here.

Legend:
Format in all cases: cell-based
in vitro = details: for CC50 at 24 h: African green monkey; for CC50 at 72 h: dog
Experimental: The microtetrazolium test (MTT) was used to study the cytotoxicity of the compounds [24]. The experiment was repeated three times. Vero cells were seeded in 96-well plates in Eagles minimal essential medium (MEM) supplemented with 10% FBS. After 24 h, the media was removed, and the wells were washed with saline. Compounds were dissolved in DMSO, and a series of three-fold dilutions of each compound and pleconaril (1000-4 µg/mL) in MEM without FBS were prepared and added to the cells in quadriplicates (200 µL per well). The maximal concentration of DMSO was 0.5% MEM with 0.5% DMSO and was added to cell control wells. Cells were incubated for 24 h at 37 °C in 5% CO2 in the presence of the dissolved compounds. The cells were then washed with saline, and a solution of 3-(4,5-dimethylthiazolyl-2) 2,5-diphenyltetrazolium bromide (ICN Biochemicals Inc., Aurora, OH, USA) (0.5 µg/mL) in MEM was added to the wells (100 µL per well). After 2 h of incubation at 37 °C in 5% CO2, the supernatant from wells was discarded, and the formazan residue was dissolved in DMSO (100 µL per well). The optical density of cells was then measured on a Victor 21,440 multifunctional reader (Perkin Elmer, Turku, Finland) at a wavelength of 535 nm and plotted against the concentration of the compounds to generate the dose–response curve. The 50% cytotoxic dose (CC50) of each compound (i.e., the compound concentration that causes the death of 50% of cells in a culture, or decreases the optical density twice as compared to the control wells) was calculated using four-parameter logistic nonlinear regression model. For some compounds (35a and 35b) cytotoxicity towards MDCK cell line was determined using the procedure above, but the cells were exposed to compounds for 72 h.

[1] = test system: coxsackievirus B3 strain Nancy; assay: Viral yield reduction assay against CVB3 in Vero cells; details: for IC50: Vero cells, viral yield reduction, MOI 0.01, 24 h, read-out: IC50 towards CVB3
[2] = test system: influenza virus A/Puerto Rico/8/34 (H1N1); assay: Antiviral activity against IAV, hemagglutination test in MDCK cells; details: for IC50: MDCK cells, hemagglutination test, 72 h, read-out: IC50 Towards IAV

Compound: Cc1cc(-c2noc(C(F)(F)F)n2)ccc1N1CCN(C(=O)c2c(-c3ccccc3)noc2C)CC1 [Compound 35b, (5-Methyl-3-phenylisoxazol-4-yl)(4-(2-methyl-4-(5-(trifluoromethyl)-1,2,4-oxadiazol-3-yl)phenyl)pi-perazin-1-yl)methanone]
- CC50 at 24 h (in vitro): 2010 ± 121 µM
- CC50 at 72 h (in vitro): > 604 µM
- IC50 ([1]; Enterovirus B): 16.1 ± 1.1 µM
- activity against the influenza virus A (in words) [2]: inactive
- IC50 [2]: > 604 µM

Compound: CCOC(=O)c1cc(N2CCN(c3ccc(-c4noc(C(F)(F)F)n4)cc3C)CC2)on1 [Compound 28c, Ethyl 5-(4-(2-methyl-4-(5-(trifluoromethyl)-1,2,4-oxadiazol-3-yl)phenyl)piperazin-1-yl)isoxazole-3-carboxylate]
- CC50 at 24 h (in vitro): ~53.2 µM
- IC50 ([1]; Enterovirus B): 48.7 ± 4.4 µM

Compound: Cc1cc(CCC(=O)Oc2ccc(-c3noc(C(F)(F)F)n3)cc2C)on1 [Compound 12b, 2-Methyl-4-(5-(trifluoromethyl)-1,2,4-oxadiazol-3-yl)phenyl 3-(3-methylisoxazol-5-yl)propanoate]
- CC50 at 24 h (in vitro): 464 ± 30.3 µM
- IC50 ([1]; Enterovirus B): 13.1 ± 0.9 µM

Compound: Methyl 5-(4-(2-methyl-4-(5-(trifluoromethyl)-1,2,4-oxadiazol-3-yl)phenyl)piperazin-1-yl)-isoxazole--3-carboxylate [Compound 28d]
- IC50 [1]: 3.9 ± 0.3 µM

Compound: Cc1cc(CN2CCN(c3ccc(-c4noc(C(F)(F)F)n4)cc3C)CC2)on1 [Compound 28b, 3-(3-Methyl-4-(4-((3-methylisoxazol-5-yl)methyl)piperazin-1-yl)phenyl)-5-(trifluoromethyl)-1,2,4-oxadiazole]
- CC50 at 24 h (in vitro): 2460 ± 171 µM
- IC50 ([1]; Enterovirus B): 41.7 ± 2.1 µM

Compound: Cc1cc(CCC(=O)Nc2ccc(-c3noc(C(F)(F)F)n3)cc2C)on1 [Compound 20b, N-(2-Methyl-4-(5-(trifluoromethyl)-1,2,4-oxadiazol-3-yl)phenyl)-3-(3-methylisoxazol-5-yl)propan-amide]
- CC50 at 24 h (in vitro): 1740 ± 120 µM
- IC50 ([1]; Enterovirus B): 76.2 ± 5.3 µM

Compound: Cc1cc(CCCOc2c(C)cc(-c3noc(C(F)(F)F)n3)cc2C)on1 [Pleconaril]
- CC50 at 24 h (in vitro): 2400 ± 160 µM
- IC50 ([1]; Enterovirus B): 18.4 ± 1.5 µM

Compound: CCOC(=O)c1cc(CCC(=O)Oc2ccc(-c3noc(C(F)(F)F)n3)cc2C)on1 [Compound 12a, Ethyl 5-(3-(2-methyl-4-(5-(trifluoromethyl)-1,2,4-oxadiazol-3-yl)phenoxy)-3-oxopropyl)-isoxazole-3-carboxylate]
- CC50 at 24 h (in vitro): 683 ± 30.4 µM
- IC50 ([1]; Enterovirus B): 9.1 ± 0.8 µM

Compound: Cc1cc(CCCSc2ccc(-c3noc(C(F)(F)F)n3)cc2C)on1 [Compound 6b, 3-(3-Methyl-4-((3-(3-methylisoxazol-5-yl)propyl)thio)phenyl)-5-(trifluoromethyl)-1,2,4-oxadiazole]
- CC50 at 24 h (in vitro): > 2610 µM
- IC50 ([1]; Enterovirus B): 15.6 ± 1.4 µM

Compound: Cc1cc(-c2noc(C(F)(F)F)n2)ccc1N1CCN(C(=O)c2cc(-c3ccccc3)no2)CC1 [Compound 35a, (4-(2-Methyl-4-(5-(trifluoromethyl)-1,2,4-oxadiazol-3-yl)phenyl)piperazin-1-yl)(3-phenylisoxazol--5-yl)methanone]
- CC50 at 24 h (in vitro): 1520 ± 70.3 µM
- CC50 at 72 h (in vitro): 1450 ± 102 µM
- activity towards CVB3 (in words) [1]: inactive
- IC50 ([1]; Enterovirus B): > 620 µM
- activity against the influenza virus A (in words) [2]: inactive
- IC50 [2]: > 493 µM

Compound: Cc1cc(-c2noc(C(F)(F)F)n2)ccc1SCCCc1cc(C(=O)N(C)C)no1 [Compound 7, N,N-dimethyl-5-(3-((2-methyl-4-(5-(trifluoromethyl)-1,2,4-oxadiazol-3-yl)phenyl)thio)propyl)isoxa-zole-3-carboxamide]
- CC50 at 24 h (in vitro): > 2270 µM
- IC50 ([1]; Enterovirus B): 18.6 ± 1.3 µM

Compound: Cc1cc(-c2noc(C(F)(F)F)n2)ccc1NC(=O)CCc1cc(C(=O)N(C)C)no1 [Compound 21, N,N-dimethyl-5-(3-((2-methyl-4-(5-(trifluoromethyl)-1,2,4-oxadiazol-3-yl)phenyl)amino)-3-oxopro-pyl)isoxazole-3-carboxamide]
- CC50 at 24 h (in vitro): 1690 ± 70.7 µM
- IC50 ([1]; Enterovirus B): 6.8 µM

Compound: CCOC(=O)c1cc(CCC(=O)Nc2ccc(-c3noc(C(F)(F)F)n3)cc2C)on1 [Compound 20a, Ethyl 5-(3-((2-methyl-4-(5-(trifluoromethyl)-1,2,4-oxadiazol-3-yl)phenyl)amino)-3-oxopropyl)isoxa-zole-3-carboxylate]
- CC50 at 24 h (in vitro): 1720 ± 70.5 µM
- IC50 ([1]; Enterovirus B): 18.2 ± 1.6 µM

Compound: CCOC(=O)c1cc(CCCSc2ccc(-c3noc(C(F)(F)F)n3)cc2C)on1 [Compound 6a, 3-(3-Methyl-4-((3-(3-carbethoxy-isoxazol-5-yl)propyl)thio)phenyl)-5-(trifluoromethyl)-1,2,4-oxadia-zole]
- CC50 at 24 h (in vitro): 485 ± 20.1 µM
- IC50 ([1]; Enterovirus B): 21 ± 1.5 µM

Compound: Cc1cc(-c2noc(C(F)(F)F)n2)ccc1N1CCN(c2cc(C(=O)N(C)C)no2)CC1 [Compound 28a, N,N-Dimethyl-5-(4-(2-methyl-4-(5-(trifluoromethyl)-1,2,4-oxadiazol-3-yl)phenyl)piperazin-1-yl)iso-xazole-3-carboxamide]
- CC50 at 24 h (in vitro): 1870 ± 90.4 µM
- IC50 ([1]; Enterovirus B): 9.1 ± 0.7 µM
